Data published in patent US20170246166A1, “1,2-BENZOTHIAZOLE COMPOUNDS FOR THE TREATMENT OF KIDNEY DISORDERS” (priority 2014, published 2017).

What was measured:
PKC = experiment: Cell-based assay of PKC inhibition (PKC substrate phosphorylation in THP-1 cells); details: human THP-1 cells, 1.5 h compound, then 20 nM PMA for 30 min; read-out: absolute IC50, PKC substrate phosphorylation
Protocol: The purpose of this assay is to test the inhibitory effects of a test compound on PKC in a cell-based system by measuring the level of PKC substrate phosphorylation.
Staurosporin may be used as a positive control. It is prepared in DMSO to make up a […] solution and then serially diluted in plain RPMI 1640 culture medium (10 μM-0.0005 μM) to obtain a ten-point dilution curve. Test compounds are prepared in the same manner.
THP-1 cells (human macrophage cell line) are obtained from ATCC (ATCC TIB-202 lot 4028542). The cells are cultured in 96-well plates coated with poly-d-lysine (Becton Dickinson) with seeding density of 4000 cells/well in RPMI 1640 culture medium (Gibco) with 1% fetal bovine serum (Gibco). […]
After the incubation, the cells are first fixed in the Prefer fixative (ANATECH LTD) for 30 min at room temperature. […] Plates are scanned with an ACUMEN EXPLORER™ Laser-scanning fluorescence microplate cytometer (TTP LABTECH LTD), with 488 nm laser excitation to detect emission fluorescence at 655 nm-705 nm (emission of DNA bound propidium iodide) for cell counting/well, and emission of 505 nm-530 nm fluorescence of antibody binding to phosphorylated PKC substrates in cells. The main assay output is a ratio of total fluorescence of phosphorylated PKC substrates to total cell number (ratio=total intensity/total cell number). […]

human PKCδ = human PKCδ (Homo sapiens, UniProt Q05655); experiment: PKC isoforms based HTRF KinEASE-STK assay, PKCδ; type: biochemical; details: 62.5 μM ATP in substrate mix, 40 min
From the text: (§1) The purpose of this assay is to evaluate the inhibitory activity of compounds on various PKC isoforms. It has been reported that perturbations in vascular cell homeostasis caused by different PKC isoforms (PKC-α, β1/2, and PKC-δ) are linked to the development of pathologies affecting large vessel (atherosclerosis, cardiomyopathy) and small vessel (retinopathy, nephropathy, and neuropathy) complications. Geraldes, P. and King, G. L., “Activation of Protein Kinase C Isoforms and Its Impact on Diabetic Complications”, Cir.
(§2) Effects of a test compound on the kinase activity of PKCα, β2, δ, ε, ι, and ζ, are determined using a HTRF KINEASE™-STK assay kit (Cisbio) in accordance with the protocol provided by the vendor. It is a general method for measuring Serine/Threonine kinase activities using kinase substrates and a universal detection system. In the current protocol, biotinilated STK1provided in the assay kit is used as the substrate that can be phosphorylated by any PKC isoform. The HTRF KINEASE™-STK assay kit format involves the two steps (Enzymatic step and Detection step) described below. First, the kinase phosphorylates the substrate in the presence of ATP. Second, the detection reagents provided in the assay kit recognize the phosphorylated substrate.

human PKCι = target: T1, human PKCι (Homo sapiens, UniProt P41743); experiment: PKC isoforms based HTRF KinEASE-STK assay, PKCι; type: biochemical; details: 87.5 μM ATP in substrate mix, 70 min
T1 sequence (P41743 1-596): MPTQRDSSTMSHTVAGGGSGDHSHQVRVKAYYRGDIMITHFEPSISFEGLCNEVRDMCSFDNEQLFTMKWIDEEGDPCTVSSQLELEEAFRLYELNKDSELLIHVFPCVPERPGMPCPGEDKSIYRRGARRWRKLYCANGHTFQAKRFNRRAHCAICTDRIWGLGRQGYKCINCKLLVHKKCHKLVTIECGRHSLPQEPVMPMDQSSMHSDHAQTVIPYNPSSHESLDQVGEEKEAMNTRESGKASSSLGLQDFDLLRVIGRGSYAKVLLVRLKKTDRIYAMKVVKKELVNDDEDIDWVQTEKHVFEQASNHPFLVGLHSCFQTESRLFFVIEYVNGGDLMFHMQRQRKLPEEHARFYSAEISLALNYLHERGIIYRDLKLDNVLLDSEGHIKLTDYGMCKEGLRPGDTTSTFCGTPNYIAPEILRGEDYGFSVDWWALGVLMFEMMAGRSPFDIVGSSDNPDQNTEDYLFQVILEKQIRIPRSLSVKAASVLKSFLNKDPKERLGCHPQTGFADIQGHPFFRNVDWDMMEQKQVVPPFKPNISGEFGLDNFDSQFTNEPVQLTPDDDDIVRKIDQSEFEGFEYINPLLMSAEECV
From the text: as §1, §2

Sequence of human PKCδ (Q05655 whole entry, canonical isoform): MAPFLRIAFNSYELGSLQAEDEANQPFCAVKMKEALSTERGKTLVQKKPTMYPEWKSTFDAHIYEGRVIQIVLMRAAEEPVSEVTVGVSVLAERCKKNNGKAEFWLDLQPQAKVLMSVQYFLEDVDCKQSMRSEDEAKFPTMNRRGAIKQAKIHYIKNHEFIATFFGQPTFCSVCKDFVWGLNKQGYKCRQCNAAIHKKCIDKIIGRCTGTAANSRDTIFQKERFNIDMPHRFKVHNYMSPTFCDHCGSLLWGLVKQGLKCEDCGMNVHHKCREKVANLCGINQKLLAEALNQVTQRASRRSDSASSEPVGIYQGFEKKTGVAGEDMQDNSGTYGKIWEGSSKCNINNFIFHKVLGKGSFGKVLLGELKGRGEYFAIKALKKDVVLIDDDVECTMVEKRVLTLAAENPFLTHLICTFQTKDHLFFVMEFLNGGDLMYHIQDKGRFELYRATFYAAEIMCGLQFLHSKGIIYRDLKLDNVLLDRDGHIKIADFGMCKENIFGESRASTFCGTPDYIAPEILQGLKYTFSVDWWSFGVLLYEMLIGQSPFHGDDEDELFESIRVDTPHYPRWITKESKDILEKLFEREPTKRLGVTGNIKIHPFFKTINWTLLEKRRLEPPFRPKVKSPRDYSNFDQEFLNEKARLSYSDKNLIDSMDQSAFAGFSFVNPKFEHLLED

IC50 (PKC): ~800 nM
IC50 (human PKCδ): ~68 nM
IC50 (human PKCι): > 20 µM
SMILES: C[C@@H]1CN(C(=O)c2cc(-c3c(F)cc(O)cc3F)cc3cnsc23)C[C@H](C)N1.Cl [Example 2, 4-(7-{[(3R,5 S)-3,5-DIMETHYLPIPERAZIN-1-YL]CARBONYL}-1,2-BENZOTHIAZOL-5-YL)-3,5-DIFLUOROPHENOL HYDROCHLORIDE]
